Test [1] deals with α-, β-, εy-, and βh1-globin mRNA in peripheral blood. Put plainly: Globin mRNA levels in peripheral blood of treated mice. Type of test: in vivo. The protocol:
Total cellular RNA was prepared using the Tissue Total RNA Mini Kit (FAVORGEN), and cDNA was synthesized using ReverTra Ace Master Mix (TOYOBO). Expression of target genes was analyzed using THUNDERBIRD SYBR qPCR Mix (TOYOBO) on a CFX Connect Real Time System (Bio-Rad). The qPCR data were acquired on CFX Maestro (Bio-Rad). Primers are listed in Supplementary Table 10. GAPDH was used as a reference. Primers were purchased from INTEGRATED DNA TECHNOLOGIES or FASMAC.
C57BL/6 mice (6–8 weeks old, female, six mice/group) were purchased from Tokyo Laboratory Animals Science. The mice were fed a standard laboratory diet and housed in a temperature-controlled room under specific pathogen-free conditions. A combination anesthetic was prepared with 0.3 mg/kg medetomidine, 4.0 mg/kg midazolam, and 5.0 mg/kg butorphanol.
The dosing solution contained 15% DMSO, 17.5% Cremophor EL, 8.75% EtOH, 8.75% HCO-40, and 50% PBS. Blood samples were collected once a week by Retro Orbital Sampling (75 μL Calibrated Micropipette; Drummond Scientific Company) during isoflurane anesthesia. Blood RNA was extracted using NucleoSpin RNA Blood (Takara Bio Inc.). The weight of each mouse was measured every 3 or 4 days.

In test [2] the target is PRMT1 (Homo sapiens, UniProt Q99873).
For test [3], the target named is NSD2 (Homo sapiens, UniProt O96028). Briefly: Radioisotope-based methyltransferase assay (selectivity).
Test [4] concerns CD34+ cells. Briefly: Flow cytometry of erythroid differentiation (CD45, glycophorin A). Format: cell-based, human. The protocol:
For the analysis of HbF expression, HUDEP-2 cells or cells differentiated from human CD34 + progenitor cells were fixed in 0.05% glutaraldehyde for 10 min, then washed two times with PBS containing 2% FBS (PBS/2% FBS) and permeabilized with 0.1% Triton X-100 (prepared in PBS/2% FBS; Life Technologies) for 5 min. After washing with PBS/2% FBS two times, cells were stained with allophycocyanin (APC)-conjugated HbF antibody (1:1, Invitrogen, MHFH05). One million cells were incubated with the HbF–APC antibody for 30 min in the dark at 4 °C. Cells were washed twice with PBS/2% FBS, then suspended in 0.2 ml PBS/2% FBS and analyzed using a FACSCalibur (Becton Dickinson). To assess erythroid differentiation, hematopoietic cells differentiated from human CD34 cells were stained with FITC-conjugated CD45 antibody (1:1, Becton Dickinson, 555482) and APC-conjugated glycophorin A antibody (1:20, Becton Dickinson, 551336). Stained cells were suspended in 0.2 ml PBS/2% FBS containing 1 μg/ml propidium iodide (Sigma) and analyzed by FACSCalibur. The results of flow cytometer were further analyzed by FlowJo software (Becton Dickinson).
In general terms: In flow cytometry, cells or beads pass a laser one at a time.

In test [5] the target is EZH1 (Homo sapiens, UniProt Q92800). Briefly: Radioisotope-based methyltransferase assay (selectivity).
Test [6] has as its system H3K9me2 at the β-globin locus. Put plainly: ChIP-qPCR with antibody against H3K9me2 in HUDEP-2 cells. Format: cell-based, human. More on the design: ChIP-qPCR using antibodies against H3K9me2 in HUDEP-2 cells: scale not given here. As to conditions: for ChIP-qPCR using antibodies against H3K9me2 in HUDEP-2 cells: experiments 1-3, a/b replicates. The protocol:
A total of 0.5–1 × 10^6 cells were cross-linked with 1% formaldehyde for 10 min at room temperature and the reaction was quenched with 250 mM glycine. Cross-linked cells were then lysed with buffer 1 (15 mM Tris-HCl (pH 7.5), 60 mM KCl, 15 mM NaCl, 5 mM MgCl2, 0.1 mM EGTA, 300 mM sucrose, […], 1 mM phenylmethanesulfonyl fluoride (PMSF), 0.5% NP40) and incubated on ice for 10 min. After centrifugation, the pellet was re-suspended in buffer 2 (15 mM Tris-HCl (pH 7.5), 60 mM KCl, 15 mM NaCl, 5 mM MgCl2, 0.1 mM EGTA, 1.2 M sucrose, […], 1 mM PMSF). After centrifugation, the pellet was then re-suspended in MNase buffer (50 mM Tris-HCl (pH 7.5), 1 mM CaCl2, 4 mM MgCl2, 320 mM sucrose, 1 mM PMSF) and digested with 100 U of micrococcal nuclease (Takara) at 37 °C for 15 min. After the reaction was quenched with 20 mM EDTA, the supernatants were incubated with antibodies (anti-H3K9me2 (1:100), Abcam, ab1220; anti-H3K9ac (1:100), Active Motif, 39917; Goat anti-IgG (H + L) (1:100), Jackson Immunoresearch; anti-BCL11A (1:100), Novus Biologicals, NB600-261; anti-ZBTB7A (1:100), Thermo Fisher Scientific, eBioscience (13E9); anti-CHD3 (1:100), Novus Biologicals, NB-100-60412; anti-CHD4 (1:100), abcam, ab240640) and Protein A/G PLUS-Agarose (Santa Cruz Biotechnology) overnight at 4 °C. Beads were washed sequentially once with the following buffers: wash buffer A (50 mM Tris-HCl (pH 7.5), 75 mM NaCl, 10 mM EDTA, 0.01% NP40), wash buffer B (50 mM Tris-HCl (pH 7.5), 100 mM NaCl, 10 mM EDTA, 0.01% NP40), wash buffer C (50 mM Tris-HCl (pH 7.5), 175 mM NaCl, 10 mM EDTA, 0.01% NP40). After treatment with proteinase K in buffer 4 (20 mM Tris-HCl (pH 8.0), 10 mM EDTA, 400 mM NaCl, 0.5% SDS) at 56 °C overnight, DNA was purified using the FastGene Gel/PCR Extraction Kit (Nippon Genetics). The samples were analyzed by qPCR. Primers are listed in Supplementary Table 10. ChIP-seq experiments were performed by GENEWIZ. Tracks were visualized using the integrative genome viewer. ChIP-seq analysis were analyzed Cutadapt (V1.9.1) for QC, FastQC (V0.10.1) for QC assessment, Bowtie (V2.1.0) for mapping, strand cross-correlation (SCC) for ChIP quality assessment, MACS2 for peak calling, and R package ChIPpeakAnno for Peak annotated.
For orientation: In qPCR the cycle at which signal appears reflects the starting amount.

“And” between values parts separate entries of the source, which are not always exact repeats. Equal values may be shown once.

This is an account of results in article PMC9837035 (Nature Communications, 2023).

Sequence of EZH1 (Q92800 whole entry): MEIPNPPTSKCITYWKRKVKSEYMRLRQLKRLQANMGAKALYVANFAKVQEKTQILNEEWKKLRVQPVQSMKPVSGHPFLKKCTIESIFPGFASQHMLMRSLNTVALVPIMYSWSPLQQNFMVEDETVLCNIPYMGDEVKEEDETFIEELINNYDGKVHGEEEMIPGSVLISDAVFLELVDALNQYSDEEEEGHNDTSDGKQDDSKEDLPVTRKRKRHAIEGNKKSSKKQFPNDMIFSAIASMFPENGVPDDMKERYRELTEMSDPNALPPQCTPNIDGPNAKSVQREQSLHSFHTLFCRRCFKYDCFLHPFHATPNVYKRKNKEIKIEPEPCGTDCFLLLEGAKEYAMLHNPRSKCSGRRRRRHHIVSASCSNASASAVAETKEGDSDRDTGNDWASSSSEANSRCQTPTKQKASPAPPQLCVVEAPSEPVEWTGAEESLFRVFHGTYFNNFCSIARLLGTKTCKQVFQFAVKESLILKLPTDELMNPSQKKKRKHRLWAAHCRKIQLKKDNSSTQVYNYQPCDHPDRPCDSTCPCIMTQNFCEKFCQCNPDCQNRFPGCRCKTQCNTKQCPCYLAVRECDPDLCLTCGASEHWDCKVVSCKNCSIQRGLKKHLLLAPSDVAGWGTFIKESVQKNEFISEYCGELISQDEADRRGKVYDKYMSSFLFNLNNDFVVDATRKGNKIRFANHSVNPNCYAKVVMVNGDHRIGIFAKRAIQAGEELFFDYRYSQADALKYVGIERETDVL
Sequence of EZH1 (O75530 whole entry partner): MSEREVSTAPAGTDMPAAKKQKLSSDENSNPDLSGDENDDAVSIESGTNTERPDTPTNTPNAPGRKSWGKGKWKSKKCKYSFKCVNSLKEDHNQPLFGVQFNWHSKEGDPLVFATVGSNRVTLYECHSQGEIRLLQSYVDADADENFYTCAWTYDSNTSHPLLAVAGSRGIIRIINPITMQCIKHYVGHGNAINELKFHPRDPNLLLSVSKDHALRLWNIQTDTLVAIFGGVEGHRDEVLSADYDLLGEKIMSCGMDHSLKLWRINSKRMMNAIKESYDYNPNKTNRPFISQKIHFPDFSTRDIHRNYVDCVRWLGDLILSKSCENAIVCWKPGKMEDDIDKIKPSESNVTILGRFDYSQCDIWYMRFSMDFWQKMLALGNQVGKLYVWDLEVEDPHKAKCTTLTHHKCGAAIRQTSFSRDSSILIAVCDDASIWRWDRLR
Sequence of EZH1 (Q15022 whole entry partner): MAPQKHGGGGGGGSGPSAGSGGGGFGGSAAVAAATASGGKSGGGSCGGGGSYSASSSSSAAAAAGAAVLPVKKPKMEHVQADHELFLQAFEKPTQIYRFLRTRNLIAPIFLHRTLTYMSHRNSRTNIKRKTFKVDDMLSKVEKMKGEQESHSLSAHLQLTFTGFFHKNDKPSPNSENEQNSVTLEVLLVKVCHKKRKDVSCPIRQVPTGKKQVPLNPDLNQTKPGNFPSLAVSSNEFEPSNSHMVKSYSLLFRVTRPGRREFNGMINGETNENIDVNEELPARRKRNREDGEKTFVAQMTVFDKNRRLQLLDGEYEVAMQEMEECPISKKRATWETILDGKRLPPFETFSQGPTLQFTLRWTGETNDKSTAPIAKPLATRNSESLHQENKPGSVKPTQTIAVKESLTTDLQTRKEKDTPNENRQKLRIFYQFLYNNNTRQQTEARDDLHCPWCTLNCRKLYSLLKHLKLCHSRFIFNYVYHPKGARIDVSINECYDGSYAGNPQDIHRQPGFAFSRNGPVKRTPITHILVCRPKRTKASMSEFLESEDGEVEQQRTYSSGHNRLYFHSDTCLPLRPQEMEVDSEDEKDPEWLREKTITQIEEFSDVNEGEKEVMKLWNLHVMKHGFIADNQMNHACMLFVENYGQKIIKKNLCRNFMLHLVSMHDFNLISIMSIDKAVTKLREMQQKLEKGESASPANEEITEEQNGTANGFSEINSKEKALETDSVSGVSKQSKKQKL
Sequence of EZH1 (Q09028 whole entry partner): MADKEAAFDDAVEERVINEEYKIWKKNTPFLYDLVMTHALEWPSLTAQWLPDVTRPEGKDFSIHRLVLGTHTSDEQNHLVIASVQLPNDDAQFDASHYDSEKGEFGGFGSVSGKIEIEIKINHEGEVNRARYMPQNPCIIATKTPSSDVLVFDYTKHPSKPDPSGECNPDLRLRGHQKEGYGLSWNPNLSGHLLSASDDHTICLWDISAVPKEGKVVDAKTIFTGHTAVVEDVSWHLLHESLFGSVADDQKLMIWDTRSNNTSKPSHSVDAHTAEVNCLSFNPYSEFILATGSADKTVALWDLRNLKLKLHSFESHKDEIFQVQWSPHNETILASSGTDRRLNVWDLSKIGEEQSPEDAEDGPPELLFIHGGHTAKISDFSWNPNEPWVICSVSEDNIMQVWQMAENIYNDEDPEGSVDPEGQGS
Sequence of EZH1 (Q6ZN18 whole entry partner): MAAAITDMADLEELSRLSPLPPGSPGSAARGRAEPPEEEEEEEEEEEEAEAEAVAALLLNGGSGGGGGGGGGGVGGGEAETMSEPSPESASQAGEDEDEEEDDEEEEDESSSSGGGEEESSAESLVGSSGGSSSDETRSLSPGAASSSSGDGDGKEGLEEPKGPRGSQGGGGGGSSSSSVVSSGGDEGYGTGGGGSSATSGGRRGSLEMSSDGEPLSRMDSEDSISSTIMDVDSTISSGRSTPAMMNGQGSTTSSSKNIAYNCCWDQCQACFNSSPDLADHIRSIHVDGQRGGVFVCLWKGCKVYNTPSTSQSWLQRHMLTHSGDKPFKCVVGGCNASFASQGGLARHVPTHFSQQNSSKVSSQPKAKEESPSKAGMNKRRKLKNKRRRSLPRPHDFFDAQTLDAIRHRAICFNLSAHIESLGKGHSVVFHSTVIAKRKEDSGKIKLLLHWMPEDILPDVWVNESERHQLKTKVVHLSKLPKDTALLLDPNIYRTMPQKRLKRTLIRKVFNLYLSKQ
Sequence of NSD2 (O96028 whole entry): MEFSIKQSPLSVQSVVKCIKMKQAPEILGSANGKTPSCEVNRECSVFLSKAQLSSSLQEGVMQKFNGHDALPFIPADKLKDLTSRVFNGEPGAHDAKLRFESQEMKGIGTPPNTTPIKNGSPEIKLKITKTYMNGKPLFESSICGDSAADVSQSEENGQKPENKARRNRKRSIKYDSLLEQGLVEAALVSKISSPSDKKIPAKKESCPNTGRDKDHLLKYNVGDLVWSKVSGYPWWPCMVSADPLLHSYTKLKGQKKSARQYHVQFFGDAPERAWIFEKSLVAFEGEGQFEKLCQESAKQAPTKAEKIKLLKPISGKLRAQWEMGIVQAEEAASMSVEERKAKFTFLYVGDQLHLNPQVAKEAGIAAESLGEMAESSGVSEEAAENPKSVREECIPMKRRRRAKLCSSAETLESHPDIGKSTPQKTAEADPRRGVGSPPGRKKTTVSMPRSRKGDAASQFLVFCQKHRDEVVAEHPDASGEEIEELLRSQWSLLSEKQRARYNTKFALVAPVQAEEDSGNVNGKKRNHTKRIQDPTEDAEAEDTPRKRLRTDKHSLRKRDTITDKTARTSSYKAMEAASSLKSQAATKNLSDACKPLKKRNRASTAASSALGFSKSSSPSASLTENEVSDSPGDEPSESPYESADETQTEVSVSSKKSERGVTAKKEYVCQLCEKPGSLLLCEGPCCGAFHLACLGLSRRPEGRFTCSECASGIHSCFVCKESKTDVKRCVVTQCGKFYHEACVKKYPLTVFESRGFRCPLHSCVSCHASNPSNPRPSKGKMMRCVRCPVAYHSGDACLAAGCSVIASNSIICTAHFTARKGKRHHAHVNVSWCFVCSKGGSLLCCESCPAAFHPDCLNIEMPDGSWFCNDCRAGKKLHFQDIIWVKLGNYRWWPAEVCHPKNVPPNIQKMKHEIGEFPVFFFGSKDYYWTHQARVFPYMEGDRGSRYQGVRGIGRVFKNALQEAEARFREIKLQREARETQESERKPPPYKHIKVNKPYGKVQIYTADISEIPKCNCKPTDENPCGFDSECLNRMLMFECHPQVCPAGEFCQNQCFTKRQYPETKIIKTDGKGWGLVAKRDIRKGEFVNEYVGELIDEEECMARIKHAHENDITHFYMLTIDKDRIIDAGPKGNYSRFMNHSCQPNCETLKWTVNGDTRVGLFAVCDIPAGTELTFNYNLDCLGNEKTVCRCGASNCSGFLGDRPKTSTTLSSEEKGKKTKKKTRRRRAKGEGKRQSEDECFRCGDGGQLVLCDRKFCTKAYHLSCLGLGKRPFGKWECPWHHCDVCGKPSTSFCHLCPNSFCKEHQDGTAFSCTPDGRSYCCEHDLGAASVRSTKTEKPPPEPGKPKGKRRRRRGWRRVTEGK
Sequence of PRMT1 (Q99873 whole entry): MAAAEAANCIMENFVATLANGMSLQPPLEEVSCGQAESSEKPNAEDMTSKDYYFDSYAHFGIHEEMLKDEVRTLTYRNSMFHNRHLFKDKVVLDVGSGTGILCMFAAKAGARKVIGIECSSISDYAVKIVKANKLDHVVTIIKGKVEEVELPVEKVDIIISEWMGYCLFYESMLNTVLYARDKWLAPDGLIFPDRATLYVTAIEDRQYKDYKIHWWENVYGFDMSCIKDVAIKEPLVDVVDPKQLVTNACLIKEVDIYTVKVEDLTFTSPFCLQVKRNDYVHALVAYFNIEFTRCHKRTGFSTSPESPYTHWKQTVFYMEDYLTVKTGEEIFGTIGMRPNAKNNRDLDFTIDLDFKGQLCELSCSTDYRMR

As for `Cc1c(C(=O)NC(CCC2CC2)C(=O)Nc2ccc(C#N)cc2)[nH]c2c1C(=O)CC(C)(C)C2` (centres unmarked) [RK-701], the “mouse embryonic εy-globin” value in test [1] is on record as “selectively increased”. The IC50 in test [2], in test [3] and in test [5] was more than 100 µM each time. For the same molecule, the erythroid differentiation entry in test [4] was “without affecting cell viability or erythroid differentiation”.
Turning to `NC(=O)NO` [Hydroxyurea, hydroxyurea], the “ChIP-qPCR using antibodies against H3K9me2 in HUDEP-2 cells” value is 0.3036 and 0.9734 and 0.09549 and 0.1907 and 0.4324 and 0.08257 in test [6] (BGLT3 locus); 0.1874 and 0.4067 and 0.1711 and 0.2985 and 0.4573 and 0.2803 in test [6] (HS1); 0.813 and 0.5625 and 0.04813 and 0.5561 and 0.988 in test [6] (HS2); 0.3829 and 1.033 and 0.3275 and 0.3135 and 0.5984 and 0.1213 in test [6] (HS3); 0.2695 and 0.4846 and 0.05083 and 0.7217 and 0.09433 in test [6] (HS4); 0.2611 and 0.4698 and 0.1317 and 0.1934 and 0.3991 and 0.1179 in test [6] (β-globin promoter). Moreover, the “ChIP-qPCR using antibodies against H3K9me2 in HUDEP-2 cells” value was 0.6385 and 1.7009 and 0.2449 and 0.8192 and 0.4081 in test [6] (γ-globin promoter); 0.1111 and 0.2374 and 0.06666 and 0.1168 and 0.2688 and 0.05187 in test [6] (δ-globin promoter). The “H3K9me2 levels at the β-globin gene locus” value in test [6] (HUDEP-2, 200 μM, 4 days) is on record as “did not alter H3K9me2 levels”.
